Data reported in patent US11613538B2, “Method of inhibiting or reducing a viral infection” (PTC Therapeutics, Inc., priority 2009, dated 2023).

Test system: hypoxia-induced VEGF production in HeLa cells
Assay: cells
Type: cell-based, human
Details: Homo sapiens, HeLa

Compound | EC50 [nM]
C[Si](C)(C)CCS(=O)(=O)N1CCC(Oc2ccc([C@H]3c4[nH]c5ccc(Cl)cc5c4CCN3C(=O)Oc3ccc(Cl)cc3)cc2)CC1 [Compound 1652] | < 8
COc1cc(C2c3[nH]c4ccc(Cl)cc4c3CCN2C(=O)Oc2ccccc2)ccc1OCCCN1CCOCC1 (stereo not shown) [Compound 1130] | 8 to 40
C[Si](C)(C)CCS(=O)(=O)N1CCC(Oc2ccc(C3NCCc4c3[nH]c3ccc(Cl)cc43)cc2)CC1 (stereo not shown) [Compound 1556] | 40 to 200
COc1ccc(C2c3[nH]c4ccc(Cl)cc4c3CCN2C(=O)Oc2ccc(Cl)cc2)cn1 (stereo not shown) [Compound 1479] | 8 to 40
CC(=O)N1CCN(CCCOc2cccc(C3c4[nH]c5ccc(Cl)cc5c4CCN3C(=O)Oc3ccc(F)cc3)c2)CC1 (stereo not shown) [Compound 1364] | 40 to 200
COc1ccc(C2c3[nH]c4ccc(Cl)cc4c3CCN2c2nc(-c3ccccc3)c(C(=O)c3ccc(Cl)cc3)s2)cc1 (stereo not shown) [Compound 1600] | < 8
O=C(OC1CCCC1)N1CCc2c([nH]c3ccc(Cl)cc23)[C@@H]1c1ccc(OC[C@@H](O)CO)cc1 [Compound 1323] | < 8
CCOC(=O)N1CCc2c([nH]c3ccc(Cl)cc23)[C@@H]1c1ccc(Oc2ccc3ccccc3n2)cc1 [Compound 1575] | < 8
O=C(Oc1ccc(Cl)cc1)N1CCc2c([nH]c3ccc(Cl)cc23)[C@@H]1c1ccc(OCCCNCCO)cc1 [Compound 1257] | 8 to 40
O=C(Oc1ccc(Cl)cc1)N1CCc2c([nH]c3ccc(Cl)cc23)C1c1ccc(OCCCOCCN2CCOCC2)cc1 (stereo not shown) [Compound 1555] | < 8
CCOC(=O)N1CCc2c([nH]c3ccc(Cl)cc23)C1c1ccc(OCCn2cc(C#N)c(N)n2)cc1 (stereo not shown) [Compound 1401] | 8 to 40
COc1ccc(C2c3[nH]c4cc(C(F)(F)F)ccc4c3CCN2C(=O)Oc2ccc(F)cc2)cc1 (stereo not shown) [Compound 1424] | > 1000
CC1(C)OC[C@H](CCOc2ccc(C3c4[nH]c5ccc(Cl)cc5c4CCN3C(=O)Oc3ccc(Cl)cc3)cc2)O1 (stereo partly shown) [Compound 1162] | < 8
CCOC(=O)N1CCc2c([nH]c3ccc(Cl)cc23)[C@@H]1c1ccc(OC[C@@H](O)CO)cc1 [Compound 1222] | < 8
[H]/N=c1\scnn1CCOc1ccc(C2c3[nH]c4ccc(Cl)cc4c3CCN2C(=O)OCC(C)C)cc1 (stereo not shown) [Compound 1407] | < 8
O=C(OCc1ccccc1)N1CCc2c([nH]c3ccc(Cl)cc23)C1c1ccc(OCC2OCCO2)cc1 (stereo not shown) [Compound 1056] | < 8
COc1ccc(C2c3[nH]c4cccc(Cl)c4c3CCN2C(=O)Oc2ccc(Br)cc2)cc1 (stereo not shown) [Compound 1532] | 40 to 200
CCOC(=O)N1CCc2c([nH]c3ccc(Cl)cc23)[C@@H]1c1ccc(OCCC(O)CNC(=O)CC)cc1 (stereo partly shown) [Compound 1615] | 8 to 40
COc1ccc(OC(=O)N2CCc3c([nH]c4ccc(Cl)cc34)C2c2ccc(OC)nc2)cc1 (stereo not shown) [Compound 1478] | 40 to 200
CCOC(=O)N1CCc2c([nH]c3ccc(Cl)cc23)[C@@H]1c1ccc(O)cc1 [Compound 1218] | 8 to 40
CCOC(=O)N1CCc2c([nH]c3ccc(Cl)cc23)C1c1cccc(OCCCN2CCN(C(C)=O)CC2)c1 (stereo not shown) [Compound 1363] | 40 to 200
O=C(OCC1CC1)N1CCc2c([nH]c3ccc(Cl)cc23)[C@@H]1c1ccc(OC[C@@H](O)CO)cc1 [Compound 1380] | < 8
CCOC(=O)N1CCc2c([nH]c3ccc(Cl)cc23)C1c1ccc(OCC(O)CNC(=O)C(C)C)cc1 (stereo not shown) [Compound 1465] | 8 to 40
CC#CCOC(=O)N1CCc2c([nH]c3ccc(Cl)cc23)[C@@H]1c1ccc(OC2CCN(CC[C@H](O)CO)CC2)cc1 [Compound 1705] | 40 to 200

Compound | EC50 [nM]
O=C(Oc1ccc(Cl)cc1)N1CCc2c([nH]c3ccc(Cl)cc23)C1c1ccc(OCCCNCCO)cc1 (stereo not shown) [Compound 1183] | < 8
CCOC(=O)N1CCc2c([nH]c3ccc(Cl)cc23)C1c1cccc(OCCCN(C)CCOC)c1 (stereo not shown) [Compound 1120] | 200 to 1000
CC1(C)OC[C@H](CCOc2ccc([C@H]3c4[nH]c5ccc(Cl)cc5c4CCN3C(=O)OC3CCCC3)cc2)O1 [Compound 1316] | < 8
COc1ccc(C2c3[nH]c4ccc(S(C)(=O)=O)cc4c3CCN2C(=S)Oc2ccc(C)cc2)cc1 (stereo not shown) [Compound 1503] | > 1000
CC(C)(C)COC(=O)N1CCc2c([nH]c3ccc(Cl)cc23)C1c1ccc(OCC[C@H]2COC(C)(C)O2)cc1 (stereo partly shown) [Compound 1167] | < 8
CC#CCOC(=O)N1CCc2c([nH]c3cccc(Br)c23)C1c1ccc(OC)cc1 (stereo not shown) [Compound 1523] | 40 to 200
CC(C)COC(=O)N1CCc2c([nH]c3ccc(Cl)cc23)C1c1ccc(OCCn2cc(C#N)c(N)n2)cc1 (stereo not shown) [Compound 1408] | < 8
CC(C)COC(=O)N1CCc2c([nH]c3ccc(Cl)cc23)C1c1ccc(OCCNc2ncc[nH]2)cc1 (stereo not shown) [Compound 1409] | 200 to 1000
COc1ccc(C2c3[nH]c4c(C)cccc4c3CCN2C(=O)Oc2ccc(Cl)cc2)cc1 (stereo not shown) [Compound 1429] | > 1000
COCCOC(=O)N1CCc2c([nH]c3ccc(Cl)cc23)C1c1ccc(OCCCO)cc1 (stereo not shown) [Compound 1109] | < 8
COc1ccc(OC(=O)N2CCc3c([nH]c4ccc(Cl)cc34)C2c2ccc(OCCCN3CCOCC3)c(OC)c2)cc1 (stereo not shown) [Compound 1131] | 8 to 40
Clc1ccc2[nH]c3c(c2c1)CCN(c1ncccn1)C3c1ccc(OC2CCOCC2)cc1 (stereo not shown) [Compound 1582] | < 8
CC(C)OC(=O)N1CCc2c([nH]c3ccc(Cl)cc23)[C@@H]1c1ccc(OCC[C@H](O)CO)cc1 [Compound 1295] | < 8
CC1(C)OC[C@@H](COc2ccc([C@H]3c4[nH]c5ccc(Cl)cc5c4CCN3C(=O)Oc3ccc(Cl)cc3)cc2)O1 [Compound 1260] | < 8
CCOC(=O)N1CCc2c([nH]c3ccc(Cl)cc23)[C@@H]1c1ccc(OCCC(O)Cn2nccn2)cc1 (stereo partly shown) [Compound 1275] | < 8
C=CCOC(=O)N1CCc2c([nH]c3ccc(Cl)cc23)C1c1ccc(OCCCO)cc1 (stereo not shown) [Compound 1060] | < 8
CCOC(=O)N1CCc2c([nH]c3ccc(Cl)cc23)C1c1ccc(OCC(=O)N2CCN(CCO)CC2)cc1 (stereo not shown) [Compound 1014] | 40 to 200
CC#CCOC(=O)N1CCc2c([nH]c3ccc(Cl)cc23)C1c1ccc(OCC2OCCO2)cc1 (stereo not shown) [Compound 1047] | < 8
CC(C)OC(=O)N1CCc2c([nH]c3ccc(Cl)cc23)[C@@H]1c1ccc(OCC2(CO)COCOC2)cc1 [Compound 1360] | 8 to 40
O=C(OCCCl)N1CCc2c([nH]c3ccc(Cl)cc23)C1c1ccc(OCC2OCCO2)cc1 (stereo not shown) [Compound 1040] | 8 to 40
COc1ccc([C@H]2c3[nH]c4ccc(Cl)cc4c3CCN2C(=O)OCC2CCCC2)cc1 [Compound 1662] | 8 to 40
CC(C)OC(=O)N1CCc2c([nH]c3ccc(Cl)cc23)C1c1ccc(OCCCN2CCN(C)CC2)cc1 (stereo not shown) [Compound 1103] | 8 to 40
CN1CCN(C[C@@H](O)COc2ccc([C@H]3c4[nH]c5ccc(Cl)cc5c4CCN3c3ncccn3)cc2)CC1 [Compound 1312] | 8 to 40
CC(C)COC(=O)N1CCc2c([nH]c3ccc(Br)cc23)C1c1ccc(OCC(C)(CO)CO)cc1 (stereo not shown) [Compound 1351] | < 8

Compound | EC50 [nM]
OCCCOc1ccc([C@H]2c3[nH]c4ccc(Cl)cc4c3CCN2c2nc(C(F)(F)F)cs2)cc1 [Compound 1632] | < 8
CCCCOC(=O)N1CCc2c([nH]c3ccc(Cl)cc23)C1c1ccc(OCC2OCCO2)cc1 (stereo not shown) [Compound 1035] | < 8
C=CCOc1ccc([C@H]2c3[nH]c4ccc(Cl)cc4c3CCN2C(=O)OCC2CCCC2)cc1 [Compound 1609] | < 8
CCCNC(=O)C(=O)N1CCc2c([nH]c3ccc(Cl)cc23)C1c1ccc(OC)cc1 (stereo not shown) [Compound 1708] | 200 to 1000
O=C(Oc1ccc(F)cc1)N1CCc2c([nH]c3cc(Br)ccc23)C1c1ccc(OC(F)F)cc1 (stereo not shown) [Compound 1450] | 40 to 200
O=C(OCC1CCC1)N1CCc2c([nH]c3ccc(Cl)cc23)[C@@H]1c1ccc(OCC[C@H](O)CO)cc1 [Compound 1374] | < 8
O=C(Oc1ccc(Cl)cc1)N1CCc2c([nH]c3ccc(Cl)cc23)[C@@H]1c1ccc(OCCCNC2CCCC2)cc1 [Compound 1235] | 8 to 40
OCCCOc1ccc([C@H]2c3[nH]c4ccc(Cl)cc4c3CCN2c2ncccn2)cc1 [Compound 1256] | < 8
CCOC(=O)N1CCc2c([nH]c3ccc(Cl)cc23)[C@@H]1c1ccc(OCCCNC2CCCC2)cc1 [Compound 1236] | 8 to 40
COc1ccc(C2c3[nH]c4ccc(Cl)cc4c3CCN2C(=O)C(=O)NC(C)C)cc1 (stereo not shown) [Compound 1707] | 40 to 200
O=C(Oc1ccc(Cl)cc1)N1CCc2c([nH]c3ccc(Cl)cc23)C1c1ccc(OCCCN2CC[C@@H](O)C2)cc1 (stereo partly shown) [Compound 1476] | 40 to 200
COc1ccc(C2c3[nH]c4ccc(Cl)cc4c3CCN2C(=O)C(=O)Oc2ccc(Cl)cc2)cc1 (stereo not shown) [Compound 1720] | > 1000
CC(C)COC(=O)N1CCc2c([nH]c3ccc(Cl)cc23)C1c1ccc(OCCNc2ncncn2)cc1 (stereo not shown) [Compound 1436] | < 8
COc1ccc(C2c3[nH]c4ccc(SC)cc4c3CCN2C(=O)Oc2ccc(Cl)cc2)cc1 (stereo not shown) [Compound 1483] | 8 to 40
O=C(Oc1ccc(F)cc1)N1CCc2c([nH]c3ccc(Cl)cc23)C1c1cccc(OCCCN2CCSCC2)c1 (stereo not shown) [Compound 1117] | 8 to 40
O=C(C1CC1)N1CCc2c([nH]c3ccc(Cl)cc23)C1c1ccc(OCCCN2CCOCC2)cc1 (stereo not shown) [Compound 1141] | 40 to 200
CC#CCOC(=O)N1CCc2c([nH]c3ccc(Cl)cc23)[C@@H]1c1ccc(OC2CCN(C[C@H](O)CO)CC2)cc1 [Compound 1697] | < 8
O=C(OCc1ccccc1)N1CCc2c([nH]c3ccc(Cl)cc23)C1c1ccc(OCCCO)cc1 (stereo not shown) [Compound 1059] | < 8
O=C(OCC1CC1)N1CCc2c([nH]c3ccc(Cl)cc23)[C@@H]1c1ccc(OC[C@H](O)CO)cc1 [Compound 1377] | < 8
CCOC(=O)N1CCc2c([nH]c3ccc(Cl)cc23)[C@@H]1c1ccc(Oc2cnc(N)cn2)cc1 [Compound 1655] | 40 to 200
CCOC(=O)N1CCc2c([nH]c3ccc(Cl)cc23)C1c1ccc(OCC(=O)NCCOC)cc1 (stereo not shown) [Compound 1015] | 40 to 200
CN1CCC(OCCCOc2ccc(C3c4[nH]c5ccc(Cl)cc5c4CCN3C(=O)Oc3ccc(Cl)cc3)cc2)CC1 (stereo not shown) [Compound 1554] | > 1000
